From the supplement of paper PMC6045584
± gives the standard deviation of the averaged measurements.

Compound: Oc1ccc(/C=C/c2cc(O)cc(O)c2)cc1 [RESVERATROL]
Assay: surviving fraction relative to DMSO-only wells; higher = less growth inhibition
Conditions: 50 nM; exposure time: 5 days
Summary of the method: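 Surviving fraction is CellTiter-Glo luminescence divided by the median of wells given DMSO only. For this, log-phase tumour cell lines went into 384-well plates at 250–500 cells per well and, 24 hours later, into five days of continuous inhibitor exposure at 0.5, 1, 5, 10, 50, 100, 500 and 1000 nM. Lines were screened three times and retained only if replicate Pearson r >0.7 and median Z' >0.3.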

Test System	surviving fraction
NOS1 BONE	1.21 ± 0.22
SUM149.B1*.S BREAST	1.02 ± 0.036
93VU HEADNECK	1.149 ± 0.0099
LM7 BONE	1.07 ± 0.067
143B BONE	0.885 ± 0.19
SUM159 BREAST	1.033 ± 0.0053
SUM149 BREAST	1.07 ± 0.048
MDAMB361 BREAST	0.948 ± 0.012
SAOS2 BONE	1.26 ± 0.11
ASKA SYNOVIAL	1.12 ± 0.13
HCC1395 BREAST	1.02 ± 0.094
HCC1954 BREAST	1.03 ± 0.025
CME SYNOVIAL	1.37 ± 0.059
VCAP PROSTATE	0.901 ± 0.061
YAMATO SYNOVIAL	1.32 ± 0.18
HCC202 BREAST	1.75 ± 0.46
HELA CERVIX	1.09 ± 0.066
SG27 HEADNECK	1.04 ± 0.083
CAL72 BONE	1.05 ± 0.055
MDAMB134 BREAST	1.06 ± 0.14

Test System	surviving fraction
C33A CERVIX	0.978 ± 0.028
SKBR3 BREAST	1.08 ± 0.053
MHM BONE	1.06 ± 0.032
VP229 BREAST	1.09 ± 0.18
SYO1 SYNOVIAL	0.974 ± 0.045
ZR751 BREAST	1.01 ± 0.1
KPD BONE	1.02 ± 0.017
SIHA CERVIX	1.07 ± 0.072
DU4475 BREAST	0.985 ± 0.1
BT549 BREAST	1.16 ± 0.038
COLO320DM LARGE INTESTINE	1.03 ± 0.063
T47D BREAST	0.997 ± 0.15
H23 LUNG	0.994 ± 0.044
NCIH441 LUNG	1.09 ± 0.029
HCT15 LARGE INTESTINE	1.05 ± 0.08
SCC90 HEADNECK	1.03 ± 0.061
MDAMB453 BREAST	1.16 ± 0.05
MG63 BONE	1.04 ± 0.024
A549 LUNG	1.04 ± 0.021
MDAMB468 BREAST	1.02 ± 0.047

Same assay, conditions: 100 nM; exposure time: 5 days

Test System	surviving fraction
NOS1 BONE	1.35 ± 0.13
SUM149.B1*.S BREAST	1.128 ± 0.0016
93VU HEADNECK	1.22 ± 0.16
LM7 BONE	1.15 ± 0.054
143B BONE	0.947 ± 0.17
SUM159 BREAST	1.07 ± 0.016
SUM149 BREAST	0.989 ± 0.062
MDAMB361 BREAST	0.884 ± 0.021
SAOS2 BONE	1.22 ± 0.089
ASKA SYNOVIAL	1.22 ± 0.051
HCC1395 BREAST	1.21 ± 0.1
HCC1954 BREAST	1.25 ± 0.19
CME SYNOVIAL	1.38 ± 0.14
VCAP PROSTATE	0.978 ± 0.017
YAMATO SYNOVIAL	1.31 ± 0.099
HCC202 BREAST	1.49 ± 0.42
HELA CERVIX	1.12 ± 0.037
SG27 HEADNECK	1.17 ± 0.059
CAL72 BONE	1.08 ± 0.1
MDAMB134 BREAST	1.04 ± 0.15

Test System	surviving fraction
C33A CERVIX	0.974 ± 0.096
SKBR3 BREAST	1.09 ± 0.028
MHM BONE	1.06 ± 0.049
VP229 BREAST	1.22 ± 0.095
SYO1 SYNOVIAL	1.01 ± 0.038
ZR751 BREAST	1.03 ± 0.1
KPD BONE	1.08 ± 0.041
SIHA CERVIX	1.09 ± 0.045
DU4475 BREAST	1.05 ± 0.17
BT549 BREAST	1.01 ± 0.14
COLO320DM LARGE INTESTINE	1.15 ± 0.086
T47D BREAST	1.08 ± 0.08
H23 LUNG	1.07 ± 0.036
NCIH441 LUNG	1.15 ± 0.087
HCT15 LARGE INTESTINE	1.06 ± 0.095
SCC90 HEADNECK	1.05 ± 0.064
MDAMB453 BREAST	1.12 ± 0.069
MG63 BONE	1.11 ± 0.029
A549 LUNG	1.09 ± 0.06
MDAMB468 BREAST	1.14 ± 0.037

Same assay, conditions: 500 nM; exposure time: 5 days

Test System	surviving fraction
NOS1 BONE	1.16 ± 0.032
SUM149.B1*.S BREAST	1.09 ± 0.043
93VU HEADNECK	1.1 ± 0.068
LM7 BONE	1.04 ± 0.034
143B BONE	1.01 ± 0.037
SUM159 BREAST	1.08 ± 0.018
SUM149 BREAST	1.09 ± 0.034
MDAMB361 BREAST	0.949 ± 0.082
SAOS2 BONE	1.24 ± 0.084
ASKA SYNOVIAL	1.1 ± 0.072
HCC1395 BREAST	1.05 ± 0.09
HCC1954 BREAST	0.997 ± 0.065
CME SYNOVIAL	1.33 ± 0.18
VCAP PROSTATE	0.88 ± 0.07
YAMATO SYNOVIAL	1.25 ± 0.073
HCC202 BREAST	1.32 ± 0.14
HELA CERVIX	1.12 ± 0.092
SG27 HEADNECK	1.15 ± 0.085
CAL72 BONE	1.04 ± 0.082
MDAMB134 BREAST	1.057 ± 0.0028

Test System	surviving fraction
C33A CERVIX	0.946 ± 0.023
SKBR3 BREAST	1.11 ± 0.12
MHM BONE	0.998 ± 0.025
VP229 BREAST	1.23 ± 0.16
SYO1 SYNOVIAL	0.987 ± 0.039
ZR751 BREAST	0.957 ± 0.045
KPD BONE	0.969 ± 0.044
SIHA CERVIX	1.09 ± 0.066
DU4475 BREAST	1.02 ± 0.047
BT549 BREAST	1.15 ± 0.047
COLO320DM LARGE INTESTINE	1.08 ± 0.077
T47D BREAST	1.02 ± 0.15
H23 LUNG	1 ± 0.034
NCIH441 LUNG	1.1 ± 0.025
HCT15 LARGE INTESTINE	0.968 ± 0.15
SCC90 HEADNECK	1.05 ± 0.019
MDAMB453 BREAST	1.04 ± 0.058
MG63 BONE	1.03 ± 0.023
A549 LUNG	1.07 ± 0.044
MDAMB468 BREAST	1.07 ± 0.053

Same assay, conditions: 1000 nM; exposure time: 5 days

Test System	surviving fraction
NOS1 BONE	1.17 ± 0.053
SUM149.B1*.S BREAST	1.14 ± 0.026
93VU HEADNECK	1.11 ± 0.15
LM7 BONE	1.12 ± 0.048
143B BONE	1.11 ± 0.057
SUM159 BREAST	1.11 ± 0.017
SUM149 BREAST	1.09 ± 0.1
MDAMB361 BREAST	0.952 ± 0.17
SAOS2 BONE	1.18 ± 0.072
ASKA SYNOVIAL	1.13 ± 0.1
HCC1395 BREAST	0.985 ± 0.15
HCC1954 BREAST	0.934 ± 0.064
CME SYNOVIAL	1.21 ± 0.039
VCAP PROSTATE	0.931 ± 0.18
YAMATO SYNOVIAL	1.15 ± 0.15
HCC202 BREAST	1.33 ± 0.39
HELA CERVIX	1.21 ± 0.066
SG27 HEADNECK	1.08 ± 0.12
CAL72 BONE	1.04 ± 0.12
MDAMB134 BREAST	1.08 ± 0.048

Test System	surviving fraction
C33A CERVIX	0.958 ± 0.049
SKBR3 BREAST	1.04 ± 0.055
MHM BONE	1.045 ± 0.0076
VP229 BREAST	1.12 ± 0.19
SYO1 SYNOVIAL	1.01 ± 0.051
ZR751 BREAST	1.12 ± 0.088
KPD BONE	1.05 ± 0.028
SIHA CERVIX	1.15 ± 0.02
DU4475 BREAST	1.1 ± 0.22
BT549 BREAST	1.12 ± 0.028
COLO320DM LARGE INTESTINE	1.12 ± 0.031
T47D BREAST	1.08 ± 0.16
H23 LUNG	1.11 ± 0.096
NCIH441 LUNG	1.17 ± 0.026
HCT15 LARGE INTESTINE	1.08 ± 0.11
SCC90 HEADNECK	0.956 ± 0.076
MDAMB453 BREAST	1.09 ± 0.019
MG63 BONE	1.05 ± 0.031
A549 LUNG	1.11 ± 0.062
MDAMB468 BREAST	1.09 ± 0.06
